Legend:
[1] = target: T1, 5-hydroxytryptamine receptor 3A (Homo sapiens) (UniProt P46098); assay: Binding affinity to recombinant 5-HT3 receptor (unknown origin) at 10 uM after 1.5 hrs by radioligand displacement assay
T1 sequence (whole entry): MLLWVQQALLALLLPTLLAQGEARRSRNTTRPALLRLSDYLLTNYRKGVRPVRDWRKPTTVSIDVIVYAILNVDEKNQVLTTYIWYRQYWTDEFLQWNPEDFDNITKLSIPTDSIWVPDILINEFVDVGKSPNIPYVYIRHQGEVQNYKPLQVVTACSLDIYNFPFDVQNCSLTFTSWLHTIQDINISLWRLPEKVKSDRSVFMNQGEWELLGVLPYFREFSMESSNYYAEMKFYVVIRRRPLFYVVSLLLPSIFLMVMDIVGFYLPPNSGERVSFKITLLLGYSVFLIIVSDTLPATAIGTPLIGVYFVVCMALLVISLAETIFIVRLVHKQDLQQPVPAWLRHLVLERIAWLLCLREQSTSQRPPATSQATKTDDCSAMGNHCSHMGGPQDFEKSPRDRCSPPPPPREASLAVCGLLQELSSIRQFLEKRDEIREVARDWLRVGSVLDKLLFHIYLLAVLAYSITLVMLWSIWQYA

[2] = AUC (0 to last) in Sprague-Dawley rat at 10 mg/kg, iv by LC-MS/MS analysis; type: ADME, organism-based; parameters: dose 10 mg/kg, time 0 - last, route intravenous; settings: in vivo
[3] = target: T2, 5-hydroxytryptamine receptor 7 (Homo sapiens, UniProt P34969); assay: Antagonist activity at human 5-HT7 receptor expressed in HEK293 cells assessed as inhibition of 5-HT-induced cAMP production at 10 uM pretreated for 10 mins followed by stimulation with 5-HT for 30 mins by fluorescence analysis; type: functional, cell-based
[4] = Tmax in Sprague-Dawley rat at 10 mg/kg, po by LC-MS/MS analysis; type: ADME, organism-based; settings: in vivo
[5] = Drug uptake in Sprague-Dawley rat brain at 10 mg/kg, po after 2 hrs by LC-MS/MS analysis; type: ADME, organism-based; settings: read-out: Drug uptake
[6] = Plasma concentration in Sprague-Dawley rat at 10 mg/kg, po after 2 hrs by LC-MS/MS analysis; type: ADME, organism-based
[7] = target: T2, 5-hydroxytryptamine receptor 7; assay: Displacement of [3H]LSD from 5-HT7 receptor (unknown origin) expressed in CHO-K1 cells by liquid scintillation counting method; type: cell-based
[8] = Plasma concentration in Sprague-Dawley rat at 10 mg/kg, iv after 2 hrs by LC-MS/MS analysis; type: ADME, organism-based
[9] = target: 5-hydroxytryptamine receptor 2B (Homo sapiens, UniProt P41595); assay: Binding affinity to recombinant 5-HT2B receptor (unknown origin) after 1.5 hrs by radioligand displacement assay
[10] = Mean residential time in Sprague-Dawley rat at 10 mg/kg, iv by LC-MS/MS analysis; type: ADME, organism-based; settings: in vivo
[11] = Ratio of drug uptake in brain to plasma of Sprague-Dawley rat at 10 mg/kg, iv after 2 hrs by LC-MS/MS analysis; type: ADME, organism-based; settings: read-out: BPR
[12] = target: 5-hydroxytryptamine receptor 6 (Homo sapiens, UniProt P50406); assay: Binding affinity to recombinant 5-HT6 receptor (unknown origin) at 10 uM after 1.5 hrs by radioligand displacement assay
[13] = Ratio of drug uptake in brain to plasma of Sprague-Dawley rat at 10 mg/kg, po after 2 hrs by LC-MS/MS analysis; type: ADME, organism-based; settings: read-out: BPR
[14] = Clearance in Sprague-Dawley rat at 10 mg/kg, iv by LC-MS/MS analysis; type: ADME, organism-based; settings: in vivo
[15] = target: 5-hydroxytryptamine receptor 2A (Homo sapiens, UniProt P28223); assay: Binding affinity to recombinant 5-HT2A receptor (unknown origin) after 1.5 hrs by radioligand displacement assay
[16] = AUC (0 to last) in Sprague-Dawley rat at 10 mg/kg, po by LC-MS/MS analysis; type: ADME, organism-based; parameters: dose 10 mg/kg, time 0 - last, route oral; settings: in vivo
[17] = target: T2, 5-hydroxytryptamine receptor 7; assay: Agonist activity at human 5-HT7 receptor expressed in HEK293 cells assessed as increase in cAMP level at 12.5 uM by fluorescence analysis relative to 5-CT; type: functional, cell-based
[18] = Oral bioavailability in Sprague-Dawley rat at 10 mg/kg by LC-MS/MS analysis; type: ADME, organism-based; settings: in vivo
[19] = target: T3, 5-hydroxytryptamine receptor 1A (Homo sapiens, UniProt P08908); assay: Binding affinity to recombinant 5-HT1A receptor (unknown origin) after 1.5 hrs by radioligand displacement assay
T3 sequence (P08908 whole entry): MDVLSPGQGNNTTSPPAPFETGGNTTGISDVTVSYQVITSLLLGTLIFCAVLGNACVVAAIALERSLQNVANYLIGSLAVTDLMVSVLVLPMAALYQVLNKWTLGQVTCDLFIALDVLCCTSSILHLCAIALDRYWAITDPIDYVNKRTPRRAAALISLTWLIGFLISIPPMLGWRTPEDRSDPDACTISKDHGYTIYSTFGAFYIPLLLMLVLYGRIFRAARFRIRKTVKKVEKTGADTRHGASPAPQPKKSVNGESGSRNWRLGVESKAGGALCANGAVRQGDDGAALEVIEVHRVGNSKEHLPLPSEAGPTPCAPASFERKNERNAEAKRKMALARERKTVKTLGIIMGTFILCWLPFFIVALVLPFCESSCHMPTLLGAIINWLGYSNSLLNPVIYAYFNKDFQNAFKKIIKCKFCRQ

[20] = target: T2, 5-hydroxytryptamine receptor 7; assay: Binding affinity to recombinant 5-HT7 receptor (unknown origin) after 1.5 hrs by radioligand displacement assay
[21] = target: T4, 5-hydroxytryptamine receptor 2C (Homo sapiens, UniProt P28335); assay: Binding affinity to recombinant 5-HT2C receptor (unknown origin) after 1.5 hrs by radioligand displacement assay
T4 sequence (P28335 whole entry): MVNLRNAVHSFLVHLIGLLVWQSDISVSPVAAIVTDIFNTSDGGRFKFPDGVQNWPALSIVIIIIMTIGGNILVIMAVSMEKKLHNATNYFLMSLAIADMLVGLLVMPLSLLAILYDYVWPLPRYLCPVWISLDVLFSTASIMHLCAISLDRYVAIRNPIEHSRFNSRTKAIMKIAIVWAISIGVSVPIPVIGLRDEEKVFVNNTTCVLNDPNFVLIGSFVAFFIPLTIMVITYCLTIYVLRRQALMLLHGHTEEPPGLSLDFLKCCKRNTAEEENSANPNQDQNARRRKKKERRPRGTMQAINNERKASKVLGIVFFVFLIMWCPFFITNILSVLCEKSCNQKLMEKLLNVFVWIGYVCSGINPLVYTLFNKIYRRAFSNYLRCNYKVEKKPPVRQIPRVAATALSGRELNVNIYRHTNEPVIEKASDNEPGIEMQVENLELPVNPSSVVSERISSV

[22] = target: 5-hydroxytryptamine receptor 1B (Homo sapiens, UniProt P28222); assay: Binding affinity to recombinant 5-HT1B receptor (unknown origin) after 1.5 hrs by radioligand displacement assay
[23] = AUC (0 to infinity) in Sprague-Dawley rat at 10 mg/kg, iv by LC-MS/MS analysis; type: ADME, organism-based; parameters: dose 10 mg/kg, route intravenous, time infinity; settings: in vivo
[24] = Metabolic stability in human liver microsomes assessed as compound remaining at 1 uM after 30 mins by LC-MS/MS in presence of NADPH; type: ADME; settings: read-out: Stability
Mus musculus = assay: Antidepressant activity in ICR mouse assessed as immobility time at 30 mg/kg, iv administered 30 mins before testing by forced swim test (reference value: 159.1 sec); type: functional
[25] = Cmax in Sprague-Dawley rat at 10 mg/kg, po by LC-MS/MS analysis; type: ADME, organism-based; parameters: dose 10 mg/kg, route oral; settings: in vivo
[26] = Volume of distribution at steady state in Sprague-Dawley rat at 10 mg/kg, iv by LC-MS/MS analysis; type: ADME, organism-based; settings: in vivo, read-out: Vdss
[27] = target: 5-hydroxytryptamine receptor 5A (Homo sapiens, UniProt P47898); assay: Binding affinity to recombinant 5-HT5 receptor (unknown origin) at 10 uM after 1.5 hrs by radioligand displacement assay
[28] = target: 5-hydroxytryptamine receptor 1D (Homo sapiens, UniProt P28221); assay: Binding affinity to recombinant 5-HT1D receptor (unknown origin) after 1.5 hrs by radioligand displacement assay
[29] = Terminal half life in Sprague-Dawley rat at 10 mg/kg, po by LC-MS/MS analysis; type: ADME, organism-based; settings: in vivo, read-out: beta t1/2
[30] = Terminal half life in Sprague-Dawley rat at 10 mg/kg, iv by LC-MS/MS analysis; type: ADME, organism-based; settings: in vivo, read-out: beta t1/2
[31] = AUC (0 to infinity) in Sprague-Dawley rat at 10 mg/kg, po by LC-MS/MS analysis; type: ADME, organism-based; parameters: dose 10 mg/kg, route oral, time infinity; settings: in vivo
[32] = Drug uptake in Sprague-Dawley rat brain at 10 mg/kg, iv after 2 hrs by LC-MS/MS analysis; type: ADME, organism-based; settings: read-out: Drug uptake

T2 sequence (P34969 whole entry): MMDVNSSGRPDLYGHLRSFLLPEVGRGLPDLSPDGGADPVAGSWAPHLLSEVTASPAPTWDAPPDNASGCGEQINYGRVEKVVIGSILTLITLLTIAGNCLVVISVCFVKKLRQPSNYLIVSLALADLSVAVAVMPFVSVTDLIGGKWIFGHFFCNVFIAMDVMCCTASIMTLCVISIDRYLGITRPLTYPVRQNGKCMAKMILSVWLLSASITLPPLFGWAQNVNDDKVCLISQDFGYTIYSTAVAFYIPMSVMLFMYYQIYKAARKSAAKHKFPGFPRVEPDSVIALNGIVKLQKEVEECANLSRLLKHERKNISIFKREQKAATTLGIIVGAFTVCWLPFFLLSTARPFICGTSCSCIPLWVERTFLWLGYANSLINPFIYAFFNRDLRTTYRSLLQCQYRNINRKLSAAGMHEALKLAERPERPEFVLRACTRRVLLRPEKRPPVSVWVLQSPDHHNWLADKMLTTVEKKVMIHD
Sequence of 5-hydroxytryptamine receptor 2B (P41595 whole entry): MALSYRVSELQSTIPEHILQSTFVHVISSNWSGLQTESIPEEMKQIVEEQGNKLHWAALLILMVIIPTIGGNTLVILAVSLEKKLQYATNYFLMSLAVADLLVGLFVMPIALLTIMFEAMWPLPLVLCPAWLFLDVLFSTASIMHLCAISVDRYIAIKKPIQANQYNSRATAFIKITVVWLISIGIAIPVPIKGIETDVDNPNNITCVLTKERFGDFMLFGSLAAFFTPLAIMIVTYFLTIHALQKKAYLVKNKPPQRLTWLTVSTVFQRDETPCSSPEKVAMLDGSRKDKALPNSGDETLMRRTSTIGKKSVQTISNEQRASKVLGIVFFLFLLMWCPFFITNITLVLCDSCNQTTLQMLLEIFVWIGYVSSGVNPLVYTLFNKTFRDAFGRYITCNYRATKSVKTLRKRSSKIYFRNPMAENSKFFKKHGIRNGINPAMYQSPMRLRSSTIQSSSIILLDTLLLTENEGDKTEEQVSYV
Sequence of 5-hydroxytryptamine receptor 1B (P28222 whole entry): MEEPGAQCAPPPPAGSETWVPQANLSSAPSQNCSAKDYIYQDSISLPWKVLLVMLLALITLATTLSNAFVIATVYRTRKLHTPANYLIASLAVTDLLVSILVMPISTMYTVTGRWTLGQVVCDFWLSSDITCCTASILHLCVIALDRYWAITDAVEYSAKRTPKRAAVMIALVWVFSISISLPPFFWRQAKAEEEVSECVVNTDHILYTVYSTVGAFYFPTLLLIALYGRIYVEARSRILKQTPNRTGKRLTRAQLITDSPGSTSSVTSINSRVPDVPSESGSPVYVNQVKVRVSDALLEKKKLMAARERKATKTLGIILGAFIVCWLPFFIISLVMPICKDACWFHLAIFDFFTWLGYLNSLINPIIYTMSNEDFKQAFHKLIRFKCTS
Sequence of 5-hydroxytryptamine receptor 2A (P28223 whole entry): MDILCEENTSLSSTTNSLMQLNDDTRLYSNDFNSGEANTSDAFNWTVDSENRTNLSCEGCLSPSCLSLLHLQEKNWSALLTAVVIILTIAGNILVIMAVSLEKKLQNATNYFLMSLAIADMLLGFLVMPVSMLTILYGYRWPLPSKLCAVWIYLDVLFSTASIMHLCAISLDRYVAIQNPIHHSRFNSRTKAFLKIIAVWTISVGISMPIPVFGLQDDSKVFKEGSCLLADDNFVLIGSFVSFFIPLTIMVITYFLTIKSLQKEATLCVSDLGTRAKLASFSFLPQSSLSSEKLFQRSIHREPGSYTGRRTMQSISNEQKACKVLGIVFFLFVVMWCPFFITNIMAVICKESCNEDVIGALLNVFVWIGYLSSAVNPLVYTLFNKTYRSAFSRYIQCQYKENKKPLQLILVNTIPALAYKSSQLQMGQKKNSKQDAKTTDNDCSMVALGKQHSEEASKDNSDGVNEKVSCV
Sequence of 5-hydroxytryptamine receptor 1D (P28221 whole entry): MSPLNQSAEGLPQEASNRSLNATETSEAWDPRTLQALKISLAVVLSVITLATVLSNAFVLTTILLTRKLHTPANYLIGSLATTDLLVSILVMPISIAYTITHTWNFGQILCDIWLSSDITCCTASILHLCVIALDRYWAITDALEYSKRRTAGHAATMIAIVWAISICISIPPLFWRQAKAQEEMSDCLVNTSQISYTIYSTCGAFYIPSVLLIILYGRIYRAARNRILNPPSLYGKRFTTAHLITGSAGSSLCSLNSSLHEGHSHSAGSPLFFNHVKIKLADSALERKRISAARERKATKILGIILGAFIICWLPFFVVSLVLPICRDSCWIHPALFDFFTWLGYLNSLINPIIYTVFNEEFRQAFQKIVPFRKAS
Sequence of 5-hydroxytryptamine receptor 5A (P47898 whole entry): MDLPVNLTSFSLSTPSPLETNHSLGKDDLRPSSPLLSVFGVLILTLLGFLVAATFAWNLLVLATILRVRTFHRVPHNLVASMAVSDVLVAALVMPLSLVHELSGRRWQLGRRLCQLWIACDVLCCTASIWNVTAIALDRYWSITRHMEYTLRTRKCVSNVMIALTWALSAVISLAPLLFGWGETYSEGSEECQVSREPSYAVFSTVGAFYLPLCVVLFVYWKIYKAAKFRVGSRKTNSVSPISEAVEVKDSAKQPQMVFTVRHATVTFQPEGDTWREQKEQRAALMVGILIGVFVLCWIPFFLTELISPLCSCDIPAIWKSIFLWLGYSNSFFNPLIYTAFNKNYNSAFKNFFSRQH
Sequence of 5-hydroxytryptamine receptor 6 (P50406 whole entry): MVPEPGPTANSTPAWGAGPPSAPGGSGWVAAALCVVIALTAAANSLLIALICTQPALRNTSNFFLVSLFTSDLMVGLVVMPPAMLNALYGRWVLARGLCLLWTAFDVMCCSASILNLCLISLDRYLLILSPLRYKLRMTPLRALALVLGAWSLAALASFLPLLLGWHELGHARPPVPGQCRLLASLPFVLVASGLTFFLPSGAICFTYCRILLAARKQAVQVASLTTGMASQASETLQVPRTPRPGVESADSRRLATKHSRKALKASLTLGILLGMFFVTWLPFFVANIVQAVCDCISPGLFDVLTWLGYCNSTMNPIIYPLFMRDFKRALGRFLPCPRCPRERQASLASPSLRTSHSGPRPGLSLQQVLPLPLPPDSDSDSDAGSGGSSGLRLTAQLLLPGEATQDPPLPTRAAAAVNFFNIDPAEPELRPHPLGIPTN

For `COc1ccccc1N1CCN(CCCCCC(=O)n2c3ccccc3c3ccccc32)CC1.Cl`, which inhibition [1] is on record?
The inhibition was 18%.

What about the AUC(0-t) [2] of the same compound?
Its AUC(0-t) is 1170 ng·h/mL.

What about the inhibition [3] of the same compound?
Its inhibition is 75.2%.

What about the Tmax [4] of the same compound?
The Tmax was 3.57 h.

And the concentration at 2 h [5]?
The concentration at 2 h was 1530 ng/mL.

What about the concentration at 2 h [6] of the same compound?
Its concentration at 2 h is 70 ng/mL.

And the Ki [7]?
Its Ki is 74 nM.

What about the concentration at 2 h [8] of the same compound?
Its concentration at 2 h is 210 ng/mL.

And the Ki [9]?
Its Ki is 419 nM.

What about the MRT [10] of the same compound?
The MRT was 2.81 h.

And the Kp at 2 h [11]?
The Kp at 2 h was 1.23.

And the inhibition [12]?
The inhibition was 31%.

What about the Kp at 2 h [13] of the same compound?
The Kp at 2 h was 25.5.

And the clearance [14]?
The clearance was 114 mL/min/kg.

What about the Ki [15] of the same compound?
Its Ki is 1260 nM.

And the AUC(0-t) [16]?
Its AUC(0-t) is 561 ng·h/mL.

What about the Activity [17] of the same compound?
The Activity was 22.2%.

What about the bioavailability [18] of the same compound?
Its bioavailability is 67.8%.

And the Ki [19]?
The Ki was 549 nM.

And the Ki [20]?
The Ki was 74 nM.

And the Ki [21]?
Its Ki is 588 nM.

What about the Ki [22] of the same compound?
The Ki was 845 nM.

What about the AUC(0-inf) [23] of the same compound?
The AUC(0-inf) was 1470 ng·h/mL.

What about the remaining at 0.5 h, 1 µM [24] of the same compound?
The remaining at 0.5 h, 1 µM was 50.8%.

What about the Time (Mus musculus) of the same compound?
Its Time is 118.9 s.

And the Cmax [25]?
The Cmax was 160 ng/mL.

And the Vd [26]?
Its Vd is 33.5 L/kg.

And the inhibition [27]?
Its inhibition is 34%.

What about the Ki [28] of the same compound?
The Ki was 1280 nM.

What about the half-life [29] of the same compound?
Its half-life is 6.62 h.

What about the half-life [30] of the same compound?
Its half-life is 3.32 h.

And the AUC(0-inf) [31]?
The AUC(0-inf) was 998 ng·h/mL.

What about the concentration at 2 h [32] of the same compound?
Its concentration at 2 h is 268 ng/mL.

Source: ChEMBL document CHEMBL3763052, “Novel N-acyl-carbazole derivatives as 5-HT7R antagonists” (Eur J Med Chem, 2016)
